In paper PMC8158254, “Anion inhibition studies of the α-carbonic anhydrases from Neisseria gonorrhoeae” (Journal of Enzyme Inhibition and Medicinal Chemistry, 2021) one finds Ki data, which are given here for 29 compounds.

Each structure is given as a SMILES string.

The first assay deals with T1, NgCA (Neisseria gonorrhoeae, UniProt Q50940).
T1 construct: gene cah
T1 sequence (Q50940 27-252): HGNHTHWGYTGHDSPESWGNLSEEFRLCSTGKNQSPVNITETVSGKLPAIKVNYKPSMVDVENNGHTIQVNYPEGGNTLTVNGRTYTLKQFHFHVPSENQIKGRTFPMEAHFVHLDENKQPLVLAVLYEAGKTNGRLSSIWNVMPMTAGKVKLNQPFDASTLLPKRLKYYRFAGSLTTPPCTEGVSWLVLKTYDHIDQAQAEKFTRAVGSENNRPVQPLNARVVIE
Nature of the assay: biochemical.
Details: not given
As for `I` [I^−], the Ki is 9600 µM.

Regarding `N#CS` [NCS^−], the Ki was found to be 920 µM.

Compound `O=P(O)(O)OP(=O)(O)O` [P2O7^2-] registered a Ki of 4900 µM.

For the compound `O=S(=O)(O)O` [SO4^2-], the Ki worked out at 830 µM.

The assay is the same for the next values; noted with them: read-out: NgCA.
Regarding `Br` [Br^−], the Ki came out at 4000 µM.

For `O=S(=O)(O)C(F)(F)F` [CF3SO3^−], the Ki is 5700 µM.

Turning to `S=C(S)S` [CS3^2-], the Ki worked out at 88 µM.

For the compound `[O-][Cl+3]([O-])([O-])O` [ClO4^−], the Ki is over 100000 µM.

On to `Cl` [Cl^−], for which the Ki was 4800 µM.

Turning to `CCN(CC)C(=S)S` [EtNCS2^−], the Ki was 5.1 µM.

For `O=S(=O)(O)F` [FSO3^−], the Ki amounted to 610 µM.

In the case of `F` [F^−], the Ki is 8300 µM.

Take `O=S(O)O` [HSO3^−]: the Ki worked out at 660 µM.

As for `S` [HS^−], the Ki worked out at 550 µM.

As for `N#CO` [NCO^−], the Ki is 430 µM.

`NS(N)(=O)=O` [NH2SO2NH2]: the Ki stood at 58 µM.

Turning to `NS(=O)(=O)O` [NH2SO3H], the Ki was determined as 24 µM.

For `O=S(=O)(O)NS(=O)(=O)O` [NH(SO3)2^2-], the Ki turned out to be 250 µM.

As for `O=NO` [NO2^−], the Ki was 590 µM.

On to `O=[N+]([O-])O` [NO3^−], for which the Ki came to 850 µM.

As to `OB(O)c1ccccc1` [PhB(OH)2], the Ki came out at 150 µM.

Regarding `[O]=[Re](=[O])(=[O])[OH]` [ReO4^−], the Ki amounted to 960 µM.

With `[O]=[Ru](=[O])(=[O])[OH]` [RuO4^−], the Ki was 1900 µM.

In the case of `O=S(=O)(O)OOS(=O)(=O)O` [S2O8^2-], the Ki stood at 790 µM.

For `N#C[SeH]` [SeCN^−], the Ki came out at 660 µM.

As to `O=[Se](=O)(O)O` [SeO4^2-], the Ki stood at 870 µM.

For `O=[Te](=O)(O)O` [TeO4^2-], the Ki came out at 760 µM.

Turning to `[O]=[V]([OH])([OH])[O][V](=[O])([OH])[OH]` [V2O7^2-], the Ki stood at 2800 µM.

The same assay, now with this note: sodium salt; CO2 substrate, 10 mM Hepes pH 7.4, 10 mM NaClO4, 15 min preincubation at room temperature; read-out: hCA I.
With `F[P-](F)(F)(F)(F)F` [PF6^−], the Ki is over 100000 µM.
